Reference: PubChem BioAssay AID1902 (Broad Institute, 2009)
Calls of active or inactive are those of the source.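 How the source made its calls: active means EC50 no more than a set limit of log units above the highest dose; inactive means the rest.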

These compounds were tested against S. pyogenes SKKanGAS, kanamycin survival, BacTiterGlo, 6 h (assay: SKKanGAS survival reduction under kanamycin, dose response, streptokinase promoter inhibitor project, SKKanGAS strain, luminescence, dose confirmation (AID 1902);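 further: lower survival reflects blocked streptokinase promoter driving kanamycin resistance gene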).
Work on `O=C(CN1c2ccccc2Sc2ccccc21)NNC(=O)Nc1ccc(Cl)c(Cl)c1` yielded an EC50 of 2230 nM. For `Cc1ccc(C(=O)n2c(N)nc3ccccc32)cc1`, the EC50 was 4290 nM. Work on `O=C(Nc1cccc(S(=O)(=O)Nc2ccc(Cl)cc2)c1)c1cc2c(s1)CCCC2` yielded an EC50 of 1300 nM. In the case of `C/C(=N\Nc1nc2ccc(Cl)cc2o1)c1ccccc1`, the EC50 is reported as 2330 nM. With `Cc1ccc(Nc2nc3ccccc3[nH]2)nc1` the EC50 was 1280 nM. Work on `Cc1cc(C)c(S(=O)(=O)/N=C2\C=C(Nc3ccc(C(=O)O)cc3)C(=O)c3ccccc32)c(C)c1` yielded an EC50 of 1160 nM. With `O=C(O)c1cnc(-c2ccccc2)nc1Sc1ccc(Cl)cc1Cl` the EC50 was 9740 nM. In the case of `CCCn1cc(CN2CCC(n3nccc3NC(=O)c3ccccc3)CC2)c(C)n1`, the EC50 is reported as > 15000 nM (inactive). Compound `N#Cc1c(Nc2cccc(F)c2)sc2c(O)cc(=O)[nH]c12` has an EC50 of 861 nM. In the case of `CSc1nc2cc(Oc3cccc(Cl)c3Cl)c(Cl)cc2[nH]1`, the EC50 is reported as 2920 nM. Work on `CC1Oc2cc3oc4c(O)c(O)ccc4c(=O)c3c(O)c2C1(C)C` (stereo not drawn) yielded an EC50 of 5890 nM. In the case of `O=[N+]([O-])c1cc(C(F)(F)F)cc([N+](=O)[O-])c1NCCNC(=S)Nc1ccc(Cl)c(Cl)c1`, the EC50 is reported as 1120 nM. In the case of `CCC(=O)NC(c1ccc(C)cc1)c1cc([N+](=O)[O-])c2cccnc2c1O` (stereo not drawn), the EC50 is reported as 1310 nM. For `O=C(c1ccc(F)cc1)c1cc2ccc(O)cc2oc1=O`, the EC50 was 7310 nM. Compound `O=C(CNc1ccccc1)N/N=C/c1c(O)ccc2ccccc12` has an EC50 of 740 nM. Work on `Cc1nn2c(COc3ccc(NC(=O)c4ccccc4Cl)cc3)nnc2c2ccccc12` yielded an EC50 of 1630 nM. `Cn1ccc(=Nc2ccc(NC(=O)c3ccc(N=c4ccn(C)c5ccc([N+](=O)[O-])cc45)cc3)cc2)cc1` gave an EC50 of 357 nM. `C#CCN1C(=O)S/C(=C\c2ccc(-c3ccc(Cl)c(C(=O)O)c3)o2)C1=O` showed an EC50 of 2840 nM. For `Cn1c(-c2c(N)n(C3CCCC3)c3nc4ccccc4nc23)nc2ccccc21`, the EC50 was 1120 nM. `Cc1cc(C)c(NC(=O)c2oc3ccccc3c2COc2ccccc2)c(C)c1` was tested, and the EC50 was 14800 nM. In the case of `Cc1ccc(-c2cc(-c3ccccc3)nc(N(C)N)n2)cc1`, the EC50 is reported as 6060 nM. In the case of `CCCC(O)(c1ccc(Br)cc1)C(CN1CCOCC1)c1ccc(Cl)cc1` (stereo not drawn), the EC50 is reported as 10100 nM. `NNc1nc(Nc2ccccc2)nc(Nc2ccccc2)n1` was tested, and the EC50 was 4040 nM. Compound `Cc1cc(C)c2nc(NNC(=O)c3ccc(S(=O)(=O)N4CC(C)CC(C)C4)cc3)sc2c1` (stereo not drawn) has an EC50 of 815 nM. For `Brc1cc2c(cc1C1Nc3ccccc3C3C=CCC31)OCO2` (stereo not drawn), the EC50 was 5370 nM. With `CCC[N+]1(CC#CC2(O)CCCCC2)CCOCC1` the EC50 was > 15000 nM (inactive). For `O=C(NCc1ccc2c(c1)OCO2)Nc1ccc(F)cc1`, the EC50 was > 15000 nM (inactive). In the case of `CC(=O)c1ccc(N2CCC(c3cc(-c4ccc(Cl)cc4Cl)n[nH]3)CC2)c([N+](=O)[O-])c1`, the EC50 is reported as 2150 nM. In the case of `O=C(O)c1ccc(N=Nc2c(O)[nH]c3ccc(Br)cc23)cc1`, the EC50 is reported as 2030 nM. For `O=C(Nc1nnc(-c2ccco2)o1)c1ccc(Cl)s1`, the EC50 was 1710 nM. In the case of `CCCOc1ccc(C(=O)NNC(=S)NC(=O)CC)cc1`, the EC50 is reported as 431 nM. With `Cn1c(SCC(=O)NC2(C#N)CCCCC2)nnc1-c1cccnc1` the EC50 was > 15000 nM (inactive). `Cc1ccc(C[n+]2c(-c3ccc(C)cc3)cc(-c3ccc(C)cc3)cc2-c2ccc(C)cc2)cc1` showed an EC50 of 4060 nM. In the case of `O=S(=O)(NC(=NCc1ccccc1)c1ccccc1)c1ccc(Br)cc1`, the EC50 is reported as > 15000 nM (inactive). `COc1ccc(C2=NOC(CNC(N)=S)C2)cc1` (stereo not drawn) was tested, and the EC50 was 3410 nM. For `Cc1ccccc1-n1nc(C(=O)c2cccs2)cc(-c2nc3ccccc3[nH]2)c1=N`, the EC50 was 1590 nM. `Cc1ccc2nc(/N=C(\N)NC(=O)NC3CCCCC3)nc(C)c2c1` gave an EC50 of 1150 nM. `Cc1ccccc1C(=O)Oc1cccc(Nc2ncnc3ccccc23)c1` was tested, and the EC50 was 3570 nM.
